Data reported in EP0292291B1, “Linear and cyclic analogs of alpha-msh fragments with extraordinary potency” (UNIVERSITY PATENTS, INC., priority 1987, dated 1988).
Read-outs that look alike come from different tables or passages of the source. Positions of bridges follow the written chain, without caps; N, C: chain ends. Non-standard residues stand in square brackets, D forms with d. Residues, ends and D or L forms follow the SMILES beside them. Nle = CCCC[C@H](N)C(=O)O; Dab = NCC[C@H](N)C(=O)O

What was measured:
Frog (Rana pipiens) Skin [1] = conditions: relative to alpha-MSH = 1.0; earlier studies; cited from earlier work
[2] = tested on: Lizard (Anolis carolinensis) Skin; conditions: relative to alpha-MSH = 1.0; earlier studies; cited from earlier work
[3] = tested on: Lizard (Anolis carolinensis) Skin; type: cell-based
Source text: (§1) Based upon the structural relationship of alpha-MSH (and its analogues and fragments) to its biological potency, using in vitro a frog skin bioassay system, the active site of alpha-MSH appears to be the common active core sequence suitably modified Ac-Met-Glu-His-Phe-Arg-Trp-Gly-NH₂. This fragment (Alpha-MSH₄₋₁₀) has been synthesized and tested for its melanocyte stimulating activity in frog skin and shown to be a weak agonist when compared to the native hormone. The amino acid exchanges in position 5(Glu) and 10(Gly) have not, previous to the making of the present invention, been investigated. […] The following table summarizes some of these studies.
(§2) The biological potencies of alpha-MSH, the linear, and the cyclic analogues were determined by their ability to stimulate melanosome dispersion in vitro in the frog and lizard bioassays. These in vitro assays provide clear cut dose response curves (between 2.5 x 10⁻¹¹ and 4 x 10⁻¹⁰ M) and can detect minimal concentration of alpha-MSH of about 10⁻¹¹ M. The assays are based upon the centrifugal dispersion of melanosomes (melanin granules) within the dendritic processes of integumental dermal melanophores leading to darkening of the skin. All the test solutions were prepared via serial dilutions from a stock solution (10⁻⁴ M). The frogs (Rans pipiens) used in these evaluations were obtained from Kons Scientific, Germantown, WI, and the lizards (Anolis carolinensis) were from the Snake Farm, La Place, LA.

Frog (Rana pipiens) Skin [4] = type: cell-based
Source text: as §1, §2

[5] = linear analogues, P = prolonged action
[6] = linear analogues, relative to alpha-MSH = 1.0
[7] = cyclic analogues, p = prolonged action
[8] = cyclic analogues, relative to alpha-MSH = 1.0

Row | Compound | Residual Activity Lizard [3, 5] | Biological Potency Lizard [3, 6] | Residual Activity Frog (Frog (Rana pipiens) Skin [4]; [5]) | Biological Potency Frog (Frog (Rana pipiens) Skin [4]; [6]) | other results
1 | Ac-[Nle⁴]-alpha-MSH₄₋₁₀NH₂ |  |  |  |  | Relative Potency Frog (Frog (Rana pipiens) Skin [1]): 0.002; Relative Potency Lizard [2]: 0.06
2 | CCCC[C@H](NC(C)=O)C(=O)N[C@@H](CC(=O)O)C(=O)N[C@@H](Cc1c[nH]cn1)C(=O)N[C@H](Cc1ccccc1)C(=O)N[C@@H](CCCNC(=N)N)C(=O)N[C@@H](Cc1c[nH]c2ccccc12)C(=O)N[C@@H](CCCCN)C(N)=O [Analogue 7] | P(-) | 8.0 |  |  | 
3 | CCCC[C@H](NC(C)=O)C(=O)N[C@@H](CCC(=O)O)C(=O)N[C@@H](Cc1c[nH]cn1)C(=O)N[C@H](Cc1ccccc1)C(=O)N[C@@H](CCCNC(=N)N)C(=O)N[C@@H](Cc1c[nH]c2ccccc12)C(=O)N[C@@H](CCN)C(N)=O [Analogue 10] (Ac-[Nle]EH[dF]RW[Dab]-NH2) | P(±) | 10.0 | P(±) | 0.9 | 
4 | CCCC[C@H](NC(C)=O)C(=O)N[C@@H](CCC(=O)O)C(=O)N[C@@H](Cc1c[nH]cn1)C(=O)N[C@H](Cc1ccccc1)C(=O)N[C@@H](CCCNC(=N)N)C(=O)N[C@@H](Cc1c[nH]c2ccccc12)C(=O)N[C@@H](CCCCN)C(N)=O [Analogue 6] | P(-) | 8.0 | P(-) | 0.2 | 
5 | Ac-[Nle⁴,D-Phe⁷]-alpha-MSH₄₋₁₁NH₂ |  |  |  |  | Relative Potency Frog (Frog (Rana pipiens) Skin [1]): 0.16; Relative Potency Lizard [2]: 8.0
6 | CCCC[C@H](NC(C)=O)C(=O)N[C@@H](CC(=O)O)C(=O)N[C@@H](Cc1c[nH]cn1)C(=O)N[C@H](Cc1ccccc1)C(=O)N[C@@H](CCCNC(=N)N)C(=O)N[C@@H](Cc1c[nH]c2ccccc12)C(=O)N[C@@H](CCN)C(N)=O [Analogue 11] | P(-) | 50.0 | P(-) | 0.9 | 
7 | Ac-[Nle⁴,D-Phe⁷]-alpha -MSH₁₋₁₃NH₂ |  |  |  |  | Relative Potency Frog (Frog (Rana pipiens) Skin [1]): 60.0; Relative Potency Lizard [2]: 5.0
8 | Ac-[Nle⁴]-alpha-MSH₄₋₁₁NH₂ |  |  |  |  | Relative Potency Frog (Frog (Rana pipiens) Skin [1]): 0.002; Relative Potency Lizard [2]: 1.0
9 | CCCC[C@H](NC(C)=O)C(=O)N[C@@H](CC(=O)O)C(=O)N[C@@H](Cc1c[nH]cn1)C(=O)N[C@@H](Cc1ccccc1)C(=O)N[C@@H](CCCNC(=N)N)C(=O)N[C@@H](Cc1c[nH]c2ccccc12)C(=O)N[C@@H](CCCCN)C(N)=O [Analogue 14] | P(-) | 0.08 |  |  | 
10 | CCCC[C@H](NC(C)=O)C(=O)N[C@@H](CC(=O)O)C(=O)N[C@@H](Cc1c[nH]cn1)C(=O)N[C@H](Cc1ccccc1)C(=O)N[C@@H](CCCNC(=N)N)C(=O)N[C@@H](Cc1c[nH]c2ccccc12)C(=O)NCC(N)=O [Analogue 5] | P(-) | 8.0 | P(-) | 0.1 | 
11 | Ac-[Nle⁴,D-Phe⁷]-alpha-MSH₄₋₁₀NH₂ |  |  |  |  | Relative Potency Frog (Frog (Rana pipiens) Skin [1]): 0.02; Relative Potency Lizard [2]: 10.0
12 | CCCC[C@H](NC(C)=O)C(=O)N[C@@H](CCC(=O)O)C(=O)N[C@@H](Cc1c[nH]cn1)C(=O)N[C@H](Cc1ccccc1)C(=O)N[C@@H](CCCNC(=N)N)C(=O)N[C@@H](Cc1c[nH]c2ccccc12)C(=O)N[C@@H](CCCCN)C(=O)NCC(=O)N1CCC[C@H]1C(=O)N[C@H](C(N)=O)C(C)C [Analogue 3] (Ac-[Nle]EH[dF]RWKGPV-NH2) | P(+) | 8.0 | P(+) | 0.8 | 
13 | CCCC[C@H](NC(C)=O)C(=O)N[C@H]1CC(=O)NC[C@@H](C(N)=O)NC(=O)[C@H](Cc2c[nH]c3ccccc23)NC(=O)[C@H](CCCNC(=N)N)NC(=O)[C@@H](Cc2ccccc2)NC(=O)[C@H](Cc2c[nH]cn2)NC1=O [Analogue 20] |  |  |  |  | Residual Activity Lizard [3, 7]: p(-); Biological Potency Lizard [3, 8]: 5.0; Residual Activity Frog (Frog (Rana pipiens) Skin [4]; [7]): p(-); Biological Potency Frog (Frog (Rana pipiens) Skin [4]; [8]): 0.01
14 | CCCC[C@H](NC(C)=O)C(=O)N[C@H]1CCC(=O)NCCCC[C@@H](C(N)=O)NC(=O)[C@H](Cc2c[nH]c3ccccc23)NC(=O)[C@H](CCCNC(=N)N)NC(=O)[C@@H](Cc2ccccc2)NC(=O)[C@H](Cc2c[nH]cn2)NC1=O [Analogue 16] |  |  |  |  | Residual Activity Lizard [3, 7]: p(+); Biological Potency Lizard [3, 8]: 9.0; Residual Activity Frog (Frog (Rana pipiens) Skin [4]; [7]): p(+); Biological Potency Frog (Frog (Rana pipiens) Skin [4]; [8]): 0.5
15 | CCCC[C@H](NC(=O)[C@H](CO)NC(=O)[C@H](Cc1ccc(O)cc1)NC(=O)[C@H](CO)NC(C)=O)C(=O)N[C@@H](CC(=O)O)C(=O)N[C@@H](Cc1c[nH]cn1)C(=O)N[C@H](Cc1ccccc1)C(=O)N[C@@H](CCCNC(=N)N)C(=O)N[C@@H](Cc1c[nH]c2ccccc12)C(=O)N[C@@H](CCCCN)C(=O)NCC(=O)N1CCC[C@H]1C(=O)N[C@H](C(N)=O)C(C)C [Analogue 2] (Ac-SYS[Nle]DH[dF]RWKGPV-NH2) | P(-) | 8.0 | P(+) | 9.0 | 
16 | CCCC[C@H](NC(C)=O)C(=O)N[C@H]1CC(=O)NCC[C@@H](C(N)=O)NC(=O)[C@H](Cc2c[nH]c3ccccc23)NC(=O)[C@H](CCCNC(=N)N)NC(=O)[C@@H](Cc2ccccc2)NC(=O)[C@H](Cc2c[nH]cn2)NC1=O [Analogue 19] |  |  |  |  | Residual Activity Lizard [3, 7]: p(-); Biological Potency Lizard [3, 8]: 5.0; Residual Activity Frog (Frog (Rana pipiens) Skin [4]; [7]): p(-); Biological Potency Frog (Frog (Rana pipiens) Skin [4]; [8]): 1.0
17 | CCCC[C@H](NC(=O)[C@H](CO)NC(=O)[C@H](Cc1ccc(O)cc1)NC(=O)[C@H](CO)NC(C)=O)C(=O)N[C@@H](CCC(=O)O)C(=O)N[C@@H](Cc1c[nH]cn1)C(=O)N[C@H](Cc1ccccc1)C(=O)N[C@@H](CCCNC(=N)N)C(=O)N[C@@H](Cc1c[nH]c2ccccc12)C(=O)N[C@@H](CCCCN)C(=O)NCC(=O)N1CCC[C@H]1C(=O)N[C@H](C(N)=O)C(C)C [Analogue 1] (Ac-SYS[Nle]EH[dF]RWKGPV-NH2) | P(-) | 8.0 | P(+) | 6.0 | 
18 | CCCC[C@H](NC(C)=O)C(=O)N[C@@H](CCC(=O)O)C(=O)N[C@@H](Cc1c[nH]cn1)C(=O)N[C@@H](Cc1ccccc1)C(=O)N[C@@H](CCCNC(=N)N)C(=O)N[C@@H](Cc1c[nH]c2ccccc12)C(=O)N[C@@H](CCCCN)C(N)=O [Analogue 13] | P(-) | 0.08 | P(+) | 0.001 | 
19 | CCCC[C@H](NC(C)=O)C(=O)N[C@@H](CC(=O)O)C(=O)N[C@@H](Cc1c[nH]cn1)C(=O)N[C@H](Cc1ccccc1)C(=O)N[C@@H](CCCNC(=N)N)C(=O)N[C@@H](Cc1c[nH]c2ccccc12)C(=O)N[C@@H](CN)C(N)=O [Analogue 12] | P(-) | 8.0 | P(-) | 0.2 | 
20 | CCCC[C@H](NC(C)=O)C(=O)N[C@H]1CCC(=O)NCCCC[C@@H](C(=O)NCC(=O)N2CCC[C@H]2C(=O)N[C@H](C(N)=O)C(C)C)NC(=O)[C@H](Cc2c[nH]c3ccccc23)NC(=O)[C@H](CCCNC(=N)N)NC(=O)[C@@H](Cc2ccccc2)NC(=O)[C@H](Cc2c[nH]cn2)NC1=O [Analogue 15] (Ac-[Nle]EH[dF]RWKGPV-NH2; lactam 2-7) |  |  |  |  | Biological Potency Lizard [3]: 6.0; Residual Activity Lizard [3, 7]: p(+); Biological Potency Frog (Frog (Rana pipiens) Skin [4]): 1.0; Residual Activity Frog (Frog (Rana pipiens) Skin [4]; [7]): p(+)
21 | CCCC[C@H](NC(C)=O)C(=O)N[C@@H](CC(=O)O)C(=O)N[C@@H](Cc1c[nH]cn1)C(=O)N[C@H](Cc1ccccc1)C(=O)N[C@@H](CCCNC(=N)N)C(=O)N[C@@H](Cc1c[nH]c2ccccc12)C(=O)N[C@@H](CCCN)C(N)=O [Analogue 9] | P(-) | 10.0 |  | 0.9 | 
22 | CCCC[C@H](NC(C)=O)C(=O)N[C@@H](CC(=O)O)C(=O)N[C@@H](Cc1c[nH]cn1)C(=O)N[C@H](Cc1ccccc1)C(=O)N[C@@H](CCCNC(=N)N)C(=O)N[C@@H](Cc1c[nH]c2ccccc12)C(=O)N[C@@H](CCCCN)C(=O)NCC(=O)N1CCC[C@H]1C(=O)N[C@H](C(N)=O)C(C)C [Analogue 4] (Ac-[Nle]DH[dF]RWKGPV-NH2) | P(+) | 10.0 | P(+) | 1.0 | 
23 | CCCC[C@H](NC(C)=O)C(=O)N[C@@H](CCC(=O)O)C(=O)N[C@@H](Cc1c[nH]cn1)C(=O)N[C@H](Cc1ccccc1)C(=O)N[C@@H](CCCNC(=N)N)C(=O)N[C@@H](Cc1c[nH]c2ccccc12)C(=O)N[C@@H](CCCN)C(N)=O [Analogue 8] | P(-) | 8.0 | P(-) | 0.6 | 
24 | CCCC[C@H](NC(C)=O)C(=O)N[C@H]1CC(=O)NCCC[C@@H](C(N)=O)NC(=O)[C@H](Cc2c[nH]c3ccccc23)NC(=O)[C@H](CCCNC(=N)N)NC(=O)[C@@H](Cc2ccccc2)NC(=O)[C@H](Cc2c[nH]cn2)NC1=O [Analogue 18] |  |  |  |  | Residual Activity Lizard [3, 7]: p(-); Biological Potency Lizard [3, 8]: 20.0; Residual Activity Frog (Frog (Rana pipiens) Skin [4]; [7]): p(-); Biological Potency Frog (Frog (Rana pipiens) Skin [4]; [8]): 1.0
